According to patent publication US9187467B2, “2-phenyl benzothiazole linked imidazole compounds as potential anticancer agents and process for the preparation thereof” (Council of Scientific and Industrial Research, priority 2012, dated 2015):
Like-named read-outs stand apart in the source and are kept apart here.

Columns and labels:
Format in all cases: cell-based, human
[1] = test system: UACC-257; experiment: SRB anticancer assay, melanoma; conditions: Homo sapiens, UACC-257, 48 h
[2] = test system: MDA-MB-231/ATCC; experiment: SRB anticancer assay, breast; conditions: Homo sapiens, MDA-MB-231, 48 h, 48 h, read-out: GI50
[3] = test system: HCT-116; experiment: SRB anticancer assay, colon; conditions: Homo sapiens, HCT-116, 48 h
[4] = test system: SK-MEL-5; experiment: SRB anticancer assay, melanoma; conditions: Homo sapiens, SK-MEL-5, 48 h
[5] = test system: HS 578T; experiment: SRB anticancer assay, breast; conditions: Homo sapiens, 48 h
[6] = test system: OVCAR-3; experiment: SRB anticancer assay, ovarian; conditions: Homo sapiens, OVCAR-3, 48 h
[7] = test system: TK-10; experiment: SRB anticancer assay, renal; conditions: Homo sapiens, TK-10, 48 h
[8] = test system: K-562; experiment: SRB anticancer assay, leukemia; conditions: Homo sapiens, K562; K-562, 48 h
[9] = test system: KM12; experiment: SRB anticancer assay, colon; conditions: Homo sapiens, KM12, 48 h
[10] = test system: SF-295; experiment: SRB anticancer assay, CNS; conditions: Homo sapiens, SF-295, 48 h
[11] = test system: Colon cancer cell lines; experiment: SRB anticancer assay, panel result
Description: (§1) The compounds were evaluated for anticancer activity against sixty human cancer cells derived from nine cancer types (leukemia cell line, non-small-cell lung cell line, colon cell line, CNS cell line, melanoma cell line, ovarian cell line, prostate cell line, renal cancer cell line and breast cancer cell line) as shown in Table 1. For each compound, dose response curves for each cell line were measured at a minimum of five concentrations at 10 fold dilutions. A protocol of 48 h continuous drug exposure was used and a sulforhodamine B (SRB) protein assay was used to estimate cell viability or growth.

[12] = test system: Renal cancer cell lines; experiment: SRB anticancer assay, panel result
Description: as §1

[13] = test system: Non-small cell lung cancer cell lines; experiment: SRB anticancer assay, panel result
Description: as §1

[14] = test system: Prostate cancer cell lines; experiment: SRB anticancer assay, panel result; conditions: Prostate panel
Description: as §1

[15] = test system: Melanoma cancer cell lines; experiment: SRB anticancer assay, panel result
Description: as §1

[16] = test system: Leukemia cancer cell lines; experiment: SRB anticancer assay, panel result
Description: as §1

[17] = test system: CNS cancer cell lines; experiment: SRB anticancer assay, panel result
Description: as §1

[18] = test system: Breast cancer cell lines; experiment: SRB anticancer assay, panel result
Description: as §1

[19] = test system: Ovarian cancer cell lines; experiment: SRB anticancer assay, panel result
Description: as §1

[20] = test system: SNB-75; experiment: SRB anticancer assay, CNS; conditions: Homo sapiens, SNB-75, 48 h
[21] = test system: NCI/ADR-RES; experiment: SRB anticancer assay, ovarian; conditions: Homo sapiens, NCI/ADR-RES, 48 h

COc1cc(OC)cc(-c2cncn2-c2ccc(-c3nc4cc(OC)cc(OC)c4s3)cc2)c1 [Compound 6d, 2-(4-(5-(3,5-Dimethoxyphenyl)-1H-imidazol-1-yl)phenyl)-5,7-dimethoxybenzo[d]thiazole]
GI50 [1]: > 100 µM
GI50 ([2]; MDA-MB-231/ATCC (row head MDA-MB-)): 9.01 µM
GI50 ([2]; row head printed 231/ATCC (second line of MDA-MB-231/ATCC)): 5.02 µM
GI50 [3]: 4.93 µM
GI50 [4]: 3.29 µM
GI50 [5]: 3.09 µM
GI50 [6]: 2.87 µM
GI50 [7]: 16.8 µM
GI50 [8]: 3.22 µM
GI50 [9]: 4.52 µM
GI50 [10]: 2.4 µM
mean graph midpoint value (MG_MID) of log10 TGI ([11]; Colon panel, total inhibition of net cell growth): >−4.0
LC50 ([11]; Homo sapiens, Colon panel, 50% net cell death, read-out: mean graph midpoint value (MG_MID) of Log10 LC50 (converted)): > 100 µM
GI50 ([11]; Homo sapiens, Colon panel, read-out: mean graph midpoint value (MG_MID) of Log10 GI50 (converted)): 13.2 µM
GI50 ([11]; Homo sapiens, seven colon cancer cell lines, exposure at least 48 h, read-out: GI50, range over the panel): 4.52 to 4.93 µM
CC50 ([12]; Homo sapiens, Renal panel, 50% net cell death, read-out: mean graph midpoint value (MG_MID) of Log10 LC50 (converted)): > 100 µM
GI50 ([12]; Homo sapiens, Renal panel, read-out: mean graph midpoint value (MG_MID) of Log10 GI50 (converted)): 12.9 µM
GI50 ([12]; Homo sapiens, eight renal cancer cell lines, exposure at least 48 h, read-out: GI50, range over the panel): 2.13 to 16.8 µM
mean graph midpoint value (MG_MID) of log10 TGI ([12]; Renal panel, total inhibition of net cell growth): >−4.0
LC50 ([13]; Homo sapiens, Non-small cell lung panel, 50% net cell death, read-out: mean graph midpoint value (MG_MID) of Log10 LC50 (converted)): > 100 µM
GI50 ([13]; Homo sapiens, Non-small cell lung panel, read-out: mean graph midpoint value (MG_MID) of Log10 GI50 (converted)): 10.5 µM
GI50 ([13]; Homo sapiens, nine Non-small cell lung cancer cell lines, exposure at least 48 h, read-out: GI50, range over the panel): 2.49 to 18.5 µM
mean graph midpoint value (MG_MID) of log10 TGI ([13]; Non-small cell lung panel, total inhibition of net cell growth): −4.05
LC50 ([14]; Homo sapiens, 50% net cell death, read-out: mean graph midpoint value (MG_MID) of Log10 LC50 (converted)): > 100 µM
GI50 ([14]; Homo sapiens, read-out: mean graph midpoint value (MG_MID) of Log10 GI50 (converted)): > 100 µM
mean graph midpoint value (MG_MID) of log10 TGI ([14]; total inhibition of net cell growth): >−4.0
LC50 ([15]; Homo sapiens, Melanoma panel, 50% net cell death, read-out: mean graph midpoint value (MG_MID) of Log10 LC50 (converted)): > 100 µM
GI50 ([15]; Homo sapiens, Melanoma panel, read-out: mean graph midpoint value (MG_MID) of Log10 GI50 (converted)): 10.5 µM
GI50 ([15]; Homo sapiens, nine melanoma cancer cell lines, exposure at least 48 h, read-out: GI50, range over the panel): 1.53 to 9.69 µM
mean graph midpoint value (MG_MID) of log10 TGI ([15]; Melanoma panel, total inhibition of net cell growth): >−4.0
LC50 ([16]; Homo sapiens, Leukemia panel, 50% net cell death, read-out: mean graph midpoint value (MG_MID) of Log10 LC50 (converted)): > 100 µM
GI50 ([16]; Homo sapiens, Leukemia panel, read-out: mean graph midpoint value (MG_MID) of Log10 GI50 (converted)): 3.31 µM
GI50 ([16]; Homo sapiens, six leukemia cancer cell lines, exposure at least 48 h, read-out: GI50, range over the panel): 3.22 to 3.3 µM
mean graph midpoint value (MG_MID) of log10 TGI ([16]; Leukemia panel, total inhibition of net cell growth): >−4.0
mean graph midpoint value (MG_MID) of log10 TGI ([17]; CNS panel, total inhibition of net cell growth): −4.19
CC50 ([17]; Homo sapiens, CNS panel, 50% net cell death, read-out: mean graph midpoint value (MG_MID) of Log10 LC50 (converted)): > 100 µM
GI50 ([17]; Homo sapiens, CNS panel, read-out: mean graph midpoint value (MG_MID) of Log10 GI50 (converted)): 7.94 µM
GI50 ([17]; Homo sapiens, six CNS cancer cell lines, exposure at least 48 h, read-out: GI50, range over the panel): 2.4 to 11.3 µM
mean graph midpoint value (MG_MID) of log10 TGI ([18]; Breast panel, total inhibition of net cell growth): >−4.0
CC50 ([18]; Homo sapiens, Breast panel, 50% net cell death, read-out: mean graph midpoint value (MG_MID) of Log10 LC50 (converted)): > 100 µM
GI50 ([18]; Homo sapiens, Breast panel, read-out: mean graph midpoint value (MG_MID) of Log10 GI50 (converted)): 4.57 µM
GI50 ([18]; Homo sapiens, six breast cancer cell lines, exposure at least 48 h, read-out: GI50, range over the panel): 3.09 to 9.01 µM
LC50 ([19]; Homo sapiens, Ovarian panel, 50% net cell death, read-out: mean graph midpoint value (MG_MID) of Log10 LC50 (converted)): > 100 µM
GI50 ([19]; Homo sapiens, Ovarian panel, read-out: mean graph midpoint value (MG_MID) of Log10 GI50 (converted)): 7.94 µM
GI50 ([19]; Homo sapiens, seven ovarian cancer cell lines, exposure at least 48 h, read-out: GI50, range over the panel): 2.87 to 14.5 µM
mean graph midpoint value (MG_MID) of log10 TGI ([19]; Ovarian panel, total inhibition of net cell growth): >−4.0
GI50 [20]: 3.28 µM
GI50 [21]: 2.58 µM
